Experiments:
Assay type in all cases: in vivo
[1] = tested on: Italian ryegrass (Lolium multiflorum); assay: Test B pre-/postemergence plant response
Outline: (§1)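 Visual scoring from 0 (no effect) to 100 (complete control) against untreated controls was done 13 to 15 days after greenhouse treatment. Chemicals were formulated in a surfactant-containing non-phytotoxic solvent and applied to soil preemergence or to 1- to 4-leaf (2-18 cm) plants postemergence.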

[2] = tested on: blackgrass (Alopecurus myosuroides); assay: Test B pre-/postemergence plant response
Outline: as §1

[3] = tested on: catchweed bedstraw (Galium aparine); assay: Test B pre-/postemergence plant response; conditions: Preemergence
Outline: as §1

[4] = tested on: common (oilseed) sunflower (Helianthus annuus); assay: Test B pre-/postemergence plant response; conditions: Preemergence
Outline: as §1

[5] = tested on: common ragweed (Ambrosia elation); assay: Test B pre-/postemergence plant response
Outline: as §1

[6] = tested on: downy bromegrass (Bromus tectorum); assay: Test B pre-/postemergence plant response
Outline: as §1

[7] = tested on: eastern black (E.B.) nightshade (Solanum ptycanthum); assay: Test B pre-/postemergence plant response; conditions: Preemergence
Outline: as §1

[8] = tested on: johnsongrass (Sorghum halepense); assay: Test B pre-/postemergence plant response
Outline: as §1

[9] = tested on: large crabgrass (Digitaria sanguinalis); assay: Test B pre-/postemergence plant response
Outline: as §1

[10] = tested on: morningglory (Ipomoea coccinea); assay: Test B pre-/postemergence plant response
Outline: as §1

[11] = tested on: pigweed (Amaranthus retroflexus); assay: Test B pre-/postemergence plant response
Outline: as §1

wild oat (Avena fatua) = assay: Test B pre-/postemergence plant response
Outline: as §1

[12] = tested on: barnyardgrass (Echinochloa crus-galli); assay: Test B flooded paddy test plant response
Outline: (§2)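 Compounds were added directly to paddy water over 2-leaf-stage plants in pots flooded 3 cm above soil, water depth maintained. Visual injury scored against controls after 13 to 15 days in greenhouse, 0 (none) to 100 (complete control); dash indicates no result.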

rice (Oryza sativa) = assay: Test B flooded paddy test plant response
Outline: as §2

[13] = Postemergence, 31 g ai/ha, scale 0 to 100, 0 no effect, 100 complete control
[14] = Postemergence, 62 g ai/ha, scale 0 to 100
[15] = Postemergence, 125 g ai/ha, scale 0 to 100
[16] = Postemergence, 250 g ai/ha, scale 0 to 100
[17] = Preemergence, 31 g ai/ha, 0 to 100 scale, 0 no effect, 100 complete control
[18] = Preemergence, 62 g ai/ha, scale 0 to 100
[19] = Preemergence, 125 g ai/ha, scale 0 to 100
[20] = Preemergence, 250 g ai/ha, scale 0 to 100
[21] = 31 g ai/ha, 0 to 100 scale, 0 no effect, 100 complete control
[22] = Flood (flooded paddy test), 62 g ai/ha, scale 0 to 100, 0 no effect, 100 complete control
[23] = Flood (flooded paddy test), 125 g ai/ha, scale 0 to 100, 0 no effect, 100 complete control
[24] = Flood (flooded paddy test), 250 g ai/ha, scale 0 to 100, 0 no effect, 100 complete control
[25] = Flood, 31 g ai/ha, scale 0 to 100

## Cc1cc(-c2ccc(Br)cc2)nn1-c1c(OC(=O)OC(C)C)cnn(C)c1=O [Compound 6]
[1]; [13]
  Plant response rating, Ryegrass, Italian: 100
[1]; [14]
  Plant response rating, Ryegrass, Italian: 100
[1]; [15]
  Plant response rating, Ryegrass, Italian: 100
[1]; [16]
  Plant response rating, Ryegrass, Italian: 100
[1]; [17]
  Plant response rating, Ryegrass, Italian: 90
[1]; [18]
  Plant response rating, Ryegrass, Italian: 100
[1]; [19]
  Plant response rating, Ryegrass, Italian: 100
[1]; [20]
  Plant response rating, Ryegrass, Italian: 100
[2]; 250 g ai/ha, preemergence, 0-100 scale
  Blackgrass plant response rating: 100
[2]; [13]
  Plant response rating, Blackgrass: 100
[2]; [14]
  Plant response rating, Blackgrass: 100
[2]; [15]
  Plant response rating, Blackgrass: 100
[2]; [16]
  Plant response rating, Blackgrass: 100
[2]; [17]
  Plant response rating, Blackgrass: 80
[2]; [18]
  Plant response rating, Blackgrass: 100
[2]; [19]
  Plant response rating, Blackgrass: 100
[3]; [21]
  Plant response rating, Galium: 0
[3]; 125 g ai/ha, scale 0 to 100
  Plant response rating, Galium: 70
[3]; 250 g ai/ha, scale 0 to 100
  Plant response rating, Galium: 70
[4]; [21]
  Plant response rating, Sunflower: 0
[4]; 62 g ai/ha, scale 0 to 100
  Plant response rating, Sunflower: 0
[4]; 125 g ai/ha, scale 0 to 100
  Plant response rating, Sunflower: 0
[4]; 250 g ai/ha, scale 0 to 100
  Plant response rating, Sunflower: 0
[5]; [13]
  Plant response rating, Ragweed: 0
[5]; [14]
  Plant response rating, Ragweed: 0
[5]; [15]
  Plant response rating, Ragweed: 0
[5]; [16]
  Plant response rating, Ragweed: 50
[5]; [17]
  Plant response rating, Ragweed: 0
[5]; [18]
  Plant response rating, Ragweed: 0
[5]; [19]
  Plant response rating, Ragweed: 20
[5]; [20]
  Plant response rating, Ragweed: 20
[6]; [13]
  Plant response rating, Bromegrass, Downy: 5
[6]; [14]
  Plant response rating, Bromegrass, Downy: 5
[6]; [15]
  Plant response rating, Bromegrass, Downy: 5
[6]; [16]
  Plant response rating, Bromegrass, Downy: 10
[6]; [17]
  Plant response rating, Bromegrass, Downy: 50
[6]; [18]
  Plant response rating, Bromegrass, Downy: 65
[6]; [19]
  Plant response rating, Bromegrass, Downy: 65
[6]; Preemergence, 250 g ai/ha, scale 0 to 100 (0 no effect, 100 complete control)
  Plant response rating, Bromegrass, Downy: 95
[7]; [21]
  Plant response rating, Nightshade, E. B.: 0
[7]; 125 g ai/ha, scale 0 to 100
  Plant response rating, Nightshade, E. B.: 90
[7]; 250 g ai/ha, scale 0 to 100
  Plant response rating, Nightshade, E. B.: 90
[8]; [13]
  Plant response rating, Johnsongrass: 0
[8]; [14]
  Plant response rating, Johnsongrass: 0
[8]; [17]
  Plant response rating, Johnsongrass: 60
[8]; [18]
  Plant response rating, Johnsongrass: 90
[8]; [19]
  Plant response rating, Johnsongrass: 95
[8]; [20]
  Plant response rating, Johnsongrass: 100
[9]; [13]
  Plant response rating, Crabgrass, Large: 100
[9]; [14]
  Plant response rating, Crabgrass, Large: 100
[9]; [15]
  Plant response rating, Crabgrass, Large: 100
[9]; [16]
  Plant response rating, Crabgrass, Large: 100
[9]; [17]
  Plant response rating, Crabgrass, Large: 98
[9]; [18]
  Plant response rating, Crabgrass, Large: 100
[9]; [19]
  Plant response rating, Crabgrass, Large: 100
[9]; [20]
  Plant response rating, Crabgrass, Large: 100
[10]; [13]
  Plant response rating, Morningglory: 0
[10]; [14]
  Plant response rating, Morningglory: 0
[10]; [15]
  Plant response rating, Morningglory: 0
[10]; [16]
  Plant response rating, Morningglory: 50
[10]; [17]
  Plant response rating, Morningglory: 0
[10]; [18]
  Plant response rating, Morningglory: 0
[10]; [19]
  Plant response rating, Morningglory: 0
[10]; [20]
  Plant response rating, Morningglory: 0
[11]; [13]
  Plant response rating, Pigweed: 0
[11]; [14]
  Plant response rating, Pigweed: 0
[11]; [15]
  Plant response rating, Pigweed: 0
[11]; [16]
  Plant response rating, Pigweed: 40
[11]; [18]
  Plant response rating, Pigweed: 0
[11]; [19]
  Plant response rating, Pigweed: 30
[11]; [20]
  Plant response rating, Pigweed: 60
Wild oat (Avena fatua); [13]
  Plant response rating, Oat, Wild: 100
Wild oat (Avena fatua); [14]
  Plant response rating, Oat, Wild: 100
Wild oat (Avena fatua); [15]
  Plant response rating, Oat, Wild: 100
Wild oat (Avena fatua); [16]
  Plant response rating, Oat, Wild: 100
Wild oat (Avena fatua); [17]
  Plant response rating, Oat, Wild: 50
Wild oat (Avena fatua); [18]
  Plant response rating, Oat, Wild: 50
Wild oat (Avena fatua); [19]
  Plant response rating, Oat, Wild: 85
Wild oat (Avena fatua); [20]
  Plant response rating, Oat, Wild: 85
[12]; [22]
  Plant response rating, Barnyardgrass: 40
[12]; [23]
  Plant response rating, Barnyardgrass: 80
[12]; [24]
  Plant response rating, Barnyardgrass: 90
[12]; [25]
  Plant response rating, Barnyardgrass: 0
Rice (Oryza sativa); [22]
  Plant response rating, Rice: 30
Rice (Oryza sativa); [23]
  Plant response rating, Rice: 80
Rice (Oryza sativa); [24]
  Plant response rating, Rice: 90
Rice (Oryza sativa); [25]
  Plant response rating, Rice: 20

Reference: US20100267561A1, “HERBICIDAL PYRIDAZINONE DERIVATIVES” (priority 2007, published 2010)
